Data published in patent US20240270762A1, “PENICILLIN-BINDING PROTEIN INHIBITORS” (priority 2021, published 2024).
pEC50, pIC50: −log10 of the molar value. Converted amounts (≈) assume the structure as drawn. Like-named read-outs stand apart in the source and are kept apart here.

Experiments:
[1] = molecular target: T1, PBP3 from Escherichia coli (K-12) (Escherichia coli, UniProt P0AD68); assay: Bocillin-FL fluorescence polarization competition binding, E. coli PBP3
T1 construct: made in house
Outline: (§1)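 Purified PBPs pre-incubated with inhibitor (E. coli PBP3 1.5 μM, 30 min; P. aeruginosa PBP3 0.75 μM, A. baumannii PBP1a 1 μM and PBP3 0.2 μM, 15 min), then Bocillin-FL 0.1 μM (0.05 μM for PBP1a) added; FP read up to 60 min. EC50 = concentration halving bound Bocillin-FL.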

[2] = molecular target: T2, PBP3 from Pseudomonas aeruginosa (PAO1) (Pseudomonas aeruginosa, UniProt G3XD46); assay: Bocillin-FL fluorescence polarization competition binding, P. aeruginosa PBP3; settings: Binding affinity to P. aeruginosa PBP3; fluorescence polarization competition binding assay using Bocillin-FL; read-out: P. aeruginosa PBP3 Potency
T2 construct: made in house
Outline: as §1

[3] = molecular target: T3, PBP1a from Acinetobacter baumannii (ATCC 19606) (Acinetobacter baumannii, UniProt A0ABX6CK30); assay: Bocillin-FL fluorescence polarization competition binding, A. baumannii PBP1a; settings: fluorescence polarization competition binding assay using Bocillin-FL; read-out: A. baumannii PBP1a Potency
T3 sequence (A0ABX6CK30 1-851): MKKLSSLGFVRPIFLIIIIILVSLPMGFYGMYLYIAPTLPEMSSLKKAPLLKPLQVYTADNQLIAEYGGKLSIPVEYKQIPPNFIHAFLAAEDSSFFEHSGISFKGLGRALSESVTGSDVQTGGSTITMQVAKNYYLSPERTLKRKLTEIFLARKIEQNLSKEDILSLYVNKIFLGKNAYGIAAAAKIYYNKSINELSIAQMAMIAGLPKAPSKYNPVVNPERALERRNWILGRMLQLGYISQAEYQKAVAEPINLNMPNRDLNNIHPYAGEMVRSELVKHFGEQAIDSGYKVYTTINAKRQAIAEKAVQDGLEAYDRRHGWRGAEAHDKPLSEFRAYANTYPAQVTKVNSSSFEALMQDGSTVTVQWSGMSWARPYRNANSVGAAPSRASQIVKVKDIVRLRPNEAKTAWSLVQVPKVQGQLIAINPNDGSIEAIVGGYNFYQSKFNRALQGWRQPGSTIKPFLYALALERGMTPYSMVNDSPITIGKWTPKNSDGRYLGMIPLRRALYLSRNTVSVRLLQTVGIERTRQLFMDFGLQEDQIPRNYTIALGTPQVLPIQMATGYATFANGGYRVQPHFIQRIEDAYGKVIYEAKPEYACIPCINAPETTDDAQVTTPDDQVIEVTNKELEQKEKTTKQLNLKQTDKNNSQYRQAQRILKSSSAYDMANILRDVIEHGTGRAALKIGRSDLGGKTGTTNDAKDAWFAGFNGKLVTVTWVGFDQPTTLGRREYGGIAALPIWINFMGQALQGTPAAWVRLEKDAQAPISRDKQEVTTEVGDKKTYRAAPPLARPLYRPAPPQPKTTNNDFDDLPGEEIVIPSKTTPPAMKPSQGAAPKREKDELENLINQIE
Outline: as §1

A. baumannii ATCC 17978 = assay: microbe, parasite or virus in culture; assay type: cell-based; settings: Acinetobacter baumannii, ATCC17978, read-out: MIC, A. baumannii ATCC 17978
P. aeruginosa CDC-0090 = assay: microbe, parasite or virus in culture; assay type: cell-based; settings: Pseudomonas aeruginosa, CDC0090, read-out: Minimum inhibitory concentration, P. aeruginosa CDC-0090
A. baumannii CDC-0033 = assay: microbe, parasite or virus in culture; assay type: cell-based; settings: Acinetobacter baumannii, CDC0033, read-out: MIC, A. baumannii CDC-0033
[4] = test system: N. gonorrhoeae ATCC 49226; assay: Liquid broth MIC in Fastidious broth; settings: Neisseria gonorrhoeae
N. gonorrhoeae WHO L = assay: Liquid broth MIC in Fastidious broth; settings: Neisseria gonorrhoeae
[5] = ATCC49226, read-out: Minimum Inhibitory Concentration (MIC), N. gonorrhoeae ATCC 49226
[6] = read-out: Minimum Inhibitory Concentration (MIC), N. gonorrhoeae WHO L
[7] = ATCC49226, read-out: Minimum Inhibitory Concentration, ATCC 49226
[8] = read-out: Minimum Inhibitory Concentration, WHO L

T1 sequence (P0AD68 1-577): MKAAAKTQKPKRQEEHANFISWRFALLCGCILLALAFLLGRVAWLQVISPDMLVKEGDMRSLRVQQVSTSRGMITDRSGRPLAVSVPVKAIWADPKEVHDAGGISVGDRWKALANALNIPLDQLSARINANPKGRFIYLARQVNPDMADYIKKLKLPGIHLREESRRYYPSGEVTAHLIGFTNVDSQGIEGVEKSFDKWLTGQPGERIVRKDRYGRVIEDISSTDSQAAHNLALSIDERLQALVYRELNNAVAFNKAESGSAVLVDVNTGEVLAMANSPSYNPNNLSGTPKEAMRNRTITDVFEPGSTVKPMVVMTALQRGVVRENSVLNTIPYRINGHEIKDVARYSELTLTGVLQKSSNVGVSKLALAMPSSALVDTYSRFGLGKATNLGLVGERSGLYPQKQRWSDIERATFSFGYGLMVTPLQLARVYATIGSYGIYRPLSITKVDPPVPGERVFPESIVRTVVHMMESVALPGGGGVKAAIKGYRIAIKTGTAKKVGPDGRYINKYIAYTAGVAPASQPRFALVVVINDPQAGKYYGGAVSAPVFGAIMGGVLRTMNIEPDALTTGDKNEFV
T2 sequence (G3XD46 whole entry): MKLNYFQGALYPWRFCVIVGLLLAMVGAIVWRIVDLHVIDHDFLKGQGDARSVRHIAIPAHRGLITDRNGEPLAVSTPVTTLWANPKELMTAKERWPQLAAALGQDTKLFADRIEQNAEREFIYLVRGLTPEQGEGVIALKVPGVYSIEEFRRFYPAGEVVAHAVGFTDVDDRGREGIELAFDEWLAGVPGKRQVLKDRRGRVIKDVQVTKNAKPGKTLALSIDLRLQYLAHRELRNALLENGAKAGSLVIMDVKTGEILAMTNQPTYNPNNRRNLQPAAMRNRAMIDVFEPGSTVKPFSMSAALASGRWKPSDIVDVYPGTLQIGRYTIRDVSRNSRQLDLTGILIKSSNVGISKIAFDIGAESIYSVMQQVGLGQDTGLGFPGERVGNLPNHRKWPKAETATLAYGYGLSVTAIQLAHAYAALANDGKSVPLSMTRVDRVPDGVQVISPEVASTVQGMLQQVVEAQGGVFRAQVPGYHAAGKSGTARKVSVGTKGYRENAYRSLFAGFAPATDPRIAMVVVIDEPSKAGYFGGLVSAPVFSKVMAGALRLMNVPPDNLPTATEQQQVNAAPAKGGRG

SMILES | pEC50 [1] | pIC50 [2] | pIC50 [3] | MIC (A. baumannii ATCC 17978) [µg/mL] | MIC (P. aeruginosa CDC-0090) [µg/mL] | MIC (A. baumannii CDC-0033) [µg/mL] | MIC [4, 5] [µg/mL] | MIC (N. gonorrhoeae WHO L; [6]) [µg/mL] | MIC [4, 7] [µg/mL] | MIC (N. gonorrhoeae WHO L; [8]) [µg/mL]
O=C(NCCCN1CCN(C(=O)NC(C(=O)N[C@H]2Cc3ccc(F)c(C(=O)O)c3OB2O)c2cc(F)c(O)c(O)c2Cl)C(=O)C1=O)Nc1cccc(O)c1 (stereo partly drawn) [Example 206, (3R)-3-(2-(2-chloro-5-fluoro-3,4-dihydroxyphenyl)-2-(4-(3-(3-(3-hydroxyphenyl)ureido)propyl)-2,3-dioxopiperazine-1-carboxamido)acetamido)-7-fluoro-2-hydroxy-3,4-dihydro-2H-benzo[e][1,2]oxaborinine-8-carboxylic acid] | > 5.00 | > 5.00 | < 3.60 | < 1 | < 1 | 2 to 4 (≈ 2.58 to 5.16 µM) | 16 to 32 (≈ 20.6 to 41.3 µM) | > 64 |  | 
O=C(NCCS(=O)(=O)N1CCN(C(=O)NC(C(=O)N[C@H]2Cc3ccc(F)c(C(=O)O)c3OB2O)c2cc(F)c(O)c(O)c2Cl)C1=O)c1cccc(O)c1 (stereo partly drawn) [Example 261, (3R)-3-(2-(2-chloro-5-fluoro-3,4-dihydroxyphenyl)-2-(3-((2-(3-hydroxybenzamido)ethyl)sulfonyl)-2-oxoimidazolidine-1-carboxamido)acetamido)-7-fluoro-2-hydroxy-3,4-dihydro-2H-benzo[e][1,2]oxaborinine-8-carboxylic acid] | > 5.00 | > 5.00 | < 3.60 | < 1 | 2 to 4 (≈ 2.56 to 5.12 µM) | 2 to 4 (≈ 2.56 to 5.12 µM) |  |  | 16 to 32 (≈ 20.5 to 40.9 µM) | > 64
O=C(NCCS(=O)(=O)N1CCN(C(=O)NC(C(=O)N[C@H]2Cc3ccc(F)c(C(=O)O)c3OB2O)c2cc(F)c(O)c(O)c2Cl)C1=O)Nc1cccc(O)c1 (stereo partly drawn) [Example 266, (3R)-3-(2-(2-chloro-5-fluoro-3,4-dihydroxyphenyl)-2-(3-((2-(3-(3-hydroxyphenyl)ureido)ethyl)sulfonyl)-2-oxoimidazolidine-1-carboxamido)acetamido)-7-fluoro-2-hydroxy-3,4-dihydro-2H-benzo[e][1,2]oxaborinine-8-carboxylic acid] | > 5.00 | > 5.00 | < 3.60 | < 1 | 2 to 4 (≈ 2.51 to 5.02 µM) | 2 to 4 (≈ 2.51 to 5.02 µM) |  |  | 16 to 32 (≈ 20.1 to 40.2 µM) | > 64
O=C(NCCN1CCN(C(=O)NC(C(=O)N[C@H]2Cc3ccc(F)c(C(=O)O)c3OB2O)c2cc(F)c(O)c(O)c2Cl)C(=O)C1=O)Nc1ccc(O)cc1 (stereo partly drawn) [Example 219, (3R)-3-(2-(2-chloro-5-fluoro-3,4-dihydroxyphenyl)-2-(4-(2-(3-(4-hydroxyphenyl)ureido)ethyl)-2,3-dioxopiperazine-1-carboxamido)acetamido)-7-fluoro-2-hydroxy-3,4-dihydro-2H-benzo[e][1,2]oxaborinine-8-carboxylic acid] | > 5.00 | > 5.00 | < 3.60 | < 1 | < 1 | 8 to 16 (≈ 10.5 to 21 µM) | 16 to 32 (≈ 21 to 42.1 µM) | > 64 |  | 
O=C(NCCCN1CCN(C(=O)NC(C(=O)N[C@H]2Cc3ccc(F)c(C(=O)O)c3OB2O)c2cc(F)c(O)c(O)c2Cl)C1=O)c1ccncc1 (stereo partly drawn) [Example 256, (3R)-3-(2-(2-chloro-5-fluoro-3,4-dihydroxyphenyl)-2-(3-(3-(isonicotinamido)propyl)-2-oxoimidazolidine-1-carboxamido)acetamido)-7-fluoro-2-hydroxy-3,4-dihydro-2H-benzo[e][1,2]oxaborinine-8-carboxylic acid] | 4.30 to 5.00 | > 5.00 | < 3.60 | < 1 | 2 to 4 (≈ 2.79 to 5.58 µM) | 2 to 4 (≈ 2.79 to 5.58 µM) |  |  | 16 to 32 (≈ 22.3 to 44.6 µM) | > 64
O=C(CN1CCN(C(=O)NC(C(=O)N[C@H]2Cc3ccc(F)c(C(=O)O)c3OB2O)c2cc(F)c(O)c(O)c2Cl)C(=O)C1=O)Nc1nccs1 (stereo partly drawn) [Example 235, (3R)-3-(2-(2-chloro-5-fluoro-3,4-dihydroxyphenyl)-2-(2,3-dioxo-4-(2-oxo-2-(thiazol-2-ylamino)ethyl)piperazine-1-carboxamido)acetamido)-7-fluoro-2-hydroxy-3,4-dihydro-2H-benzo[e][1,2]oxaborinine-8-carboxylic acid] | > 5.00 | > 5.00 | < 3.60 | < 1 | 2 to 4 (≈ 2.77 to 5.53 µM) | 8 to 16 (≈ 11.1 to 22.1 µM) | 16 to 32 (≈ 22.1 to 44.3 µM) | > 64 |  | 
O=C(NCCN1CCN(C(=O)NC(C(=O)N[C@H]2Cc3ccc(F)c(C(=O)O)c3OB2O)c2cc(F)c(O)c(O)c2Cl)C1=O)c1ccccc1 (stereo partly drawn) [Example 242, (3R)-3-(2-(3-(2-benzamidoethyl)-2-oxoimidazolidine-1-carboxamido)-2-(2-chloro-5-fluoro-3,4-dihydroxyphenyl)acetamido)-7-fluoro-2-hydroxy-3,4-dihydro-2H-benzo[e][1,2]oxaborinine-8-carboxylic acid] | > 5.00 | > 5.00 | < 3.60 | < 1 | < 1 | 2 to 4 (≈ 2.85 to 5.7 µM) | 16 to 32 (≈ 22.8 to 45.6 µM) | > 64 |  | 
O=C(NCCN1CCN(C(=O)N[C@@H](C(=O)N[C@H]2Cc3ccc(F)c(C(=O)O)c3OB2O)c2cc(F)c(O)c(O)c2Cl)C(=O)C1=O)Nc1cccnc1 [Example 222, (R)-3-((R)-2-(2-chloro-5-fluoro-3,4-dihydroxyphenyl)-2-(2,3-dioxo-4-(2-(3-(pyridin-3-yl)ureido)ethyl)piperazine-1-carboxamido)acetamido)-7-fluoro-2-hydroxy-3,4-dihydro-2H-benzo[e][1,2]oxaborinine-8-carboxylic acid] | > 5.00 | > 5.00 | < 3.60 | < 1 | 2 to 4 (≈ 2.68 to 5.36 µM) | 2 to 4 (≈ 2.68 to 5.36 µM) | 16 to 32 (≈ 21.5 to 42.9 µM) | > 64 |  | 
O=C(NCCN1CCN(C(=O)NC(C(=O)N[C@H]2Cc3ccc(F)c(C(=O)O)c3OB2O)c2cc(F)c(O)c(O)c2Cl)C1=O)c1ccc(O)cc1 (stereo partly drawn) [Example 243, (3R)-3-(2-(2-chloro-5-fluoro-3,4-dihydroxyphenyl)-2-(3-(2-(4-hydroxybenzamido)ethyl)-2-oxoimidazolidine-1-carboxamido)acetamido)-7-fluoro-2-hydroxy-3,4-dihydro-2H-benzo[e][1,2]oxaborinine-8-carboxylic acid] | 4.30 to 5.00 | > 5.00 | < 3.60 | < 1 | < 1 | 2 to 4 (≈ 2.79 to 5.57 µM) | 16 to 32 (≈ 22.3 to 44.6 µM) | > 64 |  | 
O=C(CN1CCN(C(=O)NC(C(=O)N[C@H]2Cc3ccc(F)c(C(=O)O)c3OB2O)c2cc(F)c(O)c(O)c2Cl)C(=O)C1=O)Nc1ccncc1 (stereo partly drawn) [Example 233, (3R)-3-(2-(2-chloro-5-fluoro-3,4-dihydroxyphenyl)-2-(2,3-dioxo-4-(2-oxo-2-(pyridin-4-ylamino)ethyl)piperazine-1-carboxamido)acetamido)-7-fluoro-2-hydroxy-3,4-dihydro-2H-benzo[e][1,2]oxaborinine-8-carboxylic acid] | > 5.00 | > 5.00 | < 3.60 | < 1 | < 1 | 8 to 16 (≈ 11.2 to 22.3 µM) | 4 to 8 (≈ 5.58 to 11.2 µM) | > 64 |  | 
